Data: US20120283274A1, “CRYSTALLINE FORMS OF SUBSTITUTED PYRAZOLOPYRIMIDINES” (priority 2009, published 2012)

What was measured:
Type in all cases: physicochemical
[1] = Determination of dissolution rate of a compressed tablet (UV-absorption spectroscopy); design: key to Dissolution rate: —: In case that no data given in the Table 3 it was found, that the dissolution rate did not change significantly in moving from the second to the third and fourth sectors; conditions: for Dissolution rate: 0.15 M aqueous potassium chloride, 23° C., compressed tablet
Description: Only one face of the tablet was exposed to the dissolution medium, which contained an acetate/phosphate buffer system to minimise perturbation of the experimental pH from dissolution of the drug. Stirring of the solution was continuous and at a constant rate. The absorption data was converted to absolute sample weights using previously determined, pH-dependent, molar extinction coefficients. An appropriate wavelength range was chosen to ensure that spectroscopic data with an absorption value of <1.3 was analyzed, avoiding erroneous dissolution results due to saturation of the […]. Dissolution rates were calculated from the fit of a first-order exponential equation to the experimental data obtained.
The dissolution rates listed in the Table 3 were determined at pH 2.0, 3.9, 5.4, and 7.3 (+/−0.1), at a temperature of 23° C. (+/−1° C.).

[2] = DVS (dynamic vapour sorption), hygroscopicity; conditions: for hygroscopicity: DVS 50%->0%->95%->50% r.h.; for post-DVS Raman spectrum, change in form: after DVS cycle; for mass change Δm: change of relative humidity (r.h.) from 50 to 85%
Description: DVS (50%->0%->95%->50% r.h.) was performed on the samples as mentioned above. The results are summarized in the following:
Surface Measurement Systems Ltd. DVS-1 water vapour sorption analyzer and Projekt Messtechnik SPS 11-100n multi-sample water vapor sorption analyzer were used.
The sample was allowed to equilibrate at 50% relative humidity (r.h.) before starting e.g. the following predefined humidity program: • 2 h at 0% r.h. • 0 to 95% r.h. (5%/h) • 3 h at 95% r.h. • 95 to 0% (10%/h) • 2 h at 0% r.h.

[3] = Determination of aqueous solubility (HPLC)
Description: The samples were shaken with a temperature controlled “Thermomixer comfort” from Eppendorf at 800 rpm (24 hours, 23° C.). The resulting suspensions were filtered with Millipore Centrifugal Filter Device UFC30VVNB (0.1) and Centrifuge Hettich EBA 12 R (10.000 g).
The pH of the filtrate was measured, and the concentration of the free base was determined by HPLC (method is described in Example 7).
Suspension of co-crystal in water was agitated with a temperature controlled. Thermomixer comfort” from Eppendorf with 800 rpm (24 hours, 23° C.). The suspension was filtered with Millipore Centrifugal Filter Device UFC30VVNB (0.1μ) and Centrifuge Hettich EBA 12 R (10,000 g).

Compound | Dissolution rate ([1]; pH 2.0) [µg/min] | Dissolution rate ([1]; pH 3.9) [µg/min] | Dissolution rate ([1]; pH 5.4) | Dissolution rate ([1]; pH 7.3) | hygroscopicity [2] | post-DVS Raman spectrum, change in form [2] | mass change Δm [2] | total water content ([2]; humidity increased to 95% r.h., equilibrium reached) | solubility at 24 h ([3]; thermodynamic from solid, water, 24 hours, 23° C., at pH 8.5, near the detection limit) [µg/mL] | solubility in water or aqueous solvents ([3]; water or aqueous solvents) | enhancement of the dissolution rate compared to the free drug ([1]; at pH 2) [fold]
C[C@@H]1c2ccccc2CCN1C(=O)c1cc2ncc(Br)cn2n1.O=C(O)c1cc(O)ccc1O [Example 3c, co-crystal of (6-bromo-pyrazolo[1,5-a]pyrimidin-2-yl)-(1(R)-methyl-3,4-dihydro-1H-isoquinolin-2-yl)-methanone and gentisic acid] | 2.04 | 1.06 | — | — | not hygroscopic | does not indicate any change in form | about 0.1% |  |  |  | 
C[C@@H]1c2ccccc2CCN1C(=O)c1cc2ncc(Br)cn2n1.O=C(O)c1ccc2ccccc2c1O [Example 4c, co-crystal of (6-bromo-pyrazolo[1,5-a]pyrimidin-2-yl)-(1(R)-methyl-3,4-dihydro-1H-isoquinolin-2-yl)-methanone and xinafoic acid] | 0.46 | 0.68 | 1.26 µg/min | 1.44 µg/min | slightly hygroscopic | does not indicate any change in form | about 1% | approximately 2 wt.-% |  |  | 
C[C@@H]1c2ccccc2CCN1C(=O)c1cc2ncc(Br)cn2n1 [Free drug compound, (6-bromo-pyrazolo[1,5-a]pyrimidin-2-yl)-(1(R)-methyl-3,4-dihydro-1H-isoquinolin-2-yl)-methanone] | 0.58 | 0.22 | — | — |  |  |  |  | < 10 |  | 
CC1c2ccccc2CCN1C(=O)c1cc2ncc(Br)cn2n1 (centres unmarked) [compound A] |  |  |  |  |  |  |  |  |  | below 10 μg/mL | 
co-crystal of (6-bromo-pyrazolo[1,5-a]pyrimidin-2-yl)-(1(R)-methyl-3,4-dihydro-1H-isoquinolin-2-yl)-methanone and succinic acid [Example 2a] | 2.06 | 1.58 | — | — | not hygroscopic | does not indicate any change in form | about 0.1% |  |  |  | 3
